Positions of bridges follow the written chain, without caps; N, C: chain ends. Non-standard residues stand in square brackets, D forms with d. Residues, ends and D or L forms follow the SMILES beside them. 1Nal = N[C@@H](Cc1cccc2ccccc12)C(=O)O
How the values were obtained:
Assay in all cases: cell-based
hNav1.3 = hNav1.3 (Homo sapiens, UniProt Q9NY46); conditions: IonWorks Quattro, use-dependent block, hNav1.3; read-out: IWQ Use Nav1.3
hNav1.7 = hNav1.7 (Homo sapiens, UniProt Q15858); format: cell-based; conditions: IonWorks Quattro, use-dependent block, hNav1.7; read-out: IWQ Use Nav1.7
hNav1.5 = hNav1.5 (Homo sapiens, UniProt Q14524); conditions: IonWorks Quattro, use-dependent block, hNav1.5; read-out: IWQ Use Nav1.5
Chain of hNav1.5 (Q14524 whole entry, looked up): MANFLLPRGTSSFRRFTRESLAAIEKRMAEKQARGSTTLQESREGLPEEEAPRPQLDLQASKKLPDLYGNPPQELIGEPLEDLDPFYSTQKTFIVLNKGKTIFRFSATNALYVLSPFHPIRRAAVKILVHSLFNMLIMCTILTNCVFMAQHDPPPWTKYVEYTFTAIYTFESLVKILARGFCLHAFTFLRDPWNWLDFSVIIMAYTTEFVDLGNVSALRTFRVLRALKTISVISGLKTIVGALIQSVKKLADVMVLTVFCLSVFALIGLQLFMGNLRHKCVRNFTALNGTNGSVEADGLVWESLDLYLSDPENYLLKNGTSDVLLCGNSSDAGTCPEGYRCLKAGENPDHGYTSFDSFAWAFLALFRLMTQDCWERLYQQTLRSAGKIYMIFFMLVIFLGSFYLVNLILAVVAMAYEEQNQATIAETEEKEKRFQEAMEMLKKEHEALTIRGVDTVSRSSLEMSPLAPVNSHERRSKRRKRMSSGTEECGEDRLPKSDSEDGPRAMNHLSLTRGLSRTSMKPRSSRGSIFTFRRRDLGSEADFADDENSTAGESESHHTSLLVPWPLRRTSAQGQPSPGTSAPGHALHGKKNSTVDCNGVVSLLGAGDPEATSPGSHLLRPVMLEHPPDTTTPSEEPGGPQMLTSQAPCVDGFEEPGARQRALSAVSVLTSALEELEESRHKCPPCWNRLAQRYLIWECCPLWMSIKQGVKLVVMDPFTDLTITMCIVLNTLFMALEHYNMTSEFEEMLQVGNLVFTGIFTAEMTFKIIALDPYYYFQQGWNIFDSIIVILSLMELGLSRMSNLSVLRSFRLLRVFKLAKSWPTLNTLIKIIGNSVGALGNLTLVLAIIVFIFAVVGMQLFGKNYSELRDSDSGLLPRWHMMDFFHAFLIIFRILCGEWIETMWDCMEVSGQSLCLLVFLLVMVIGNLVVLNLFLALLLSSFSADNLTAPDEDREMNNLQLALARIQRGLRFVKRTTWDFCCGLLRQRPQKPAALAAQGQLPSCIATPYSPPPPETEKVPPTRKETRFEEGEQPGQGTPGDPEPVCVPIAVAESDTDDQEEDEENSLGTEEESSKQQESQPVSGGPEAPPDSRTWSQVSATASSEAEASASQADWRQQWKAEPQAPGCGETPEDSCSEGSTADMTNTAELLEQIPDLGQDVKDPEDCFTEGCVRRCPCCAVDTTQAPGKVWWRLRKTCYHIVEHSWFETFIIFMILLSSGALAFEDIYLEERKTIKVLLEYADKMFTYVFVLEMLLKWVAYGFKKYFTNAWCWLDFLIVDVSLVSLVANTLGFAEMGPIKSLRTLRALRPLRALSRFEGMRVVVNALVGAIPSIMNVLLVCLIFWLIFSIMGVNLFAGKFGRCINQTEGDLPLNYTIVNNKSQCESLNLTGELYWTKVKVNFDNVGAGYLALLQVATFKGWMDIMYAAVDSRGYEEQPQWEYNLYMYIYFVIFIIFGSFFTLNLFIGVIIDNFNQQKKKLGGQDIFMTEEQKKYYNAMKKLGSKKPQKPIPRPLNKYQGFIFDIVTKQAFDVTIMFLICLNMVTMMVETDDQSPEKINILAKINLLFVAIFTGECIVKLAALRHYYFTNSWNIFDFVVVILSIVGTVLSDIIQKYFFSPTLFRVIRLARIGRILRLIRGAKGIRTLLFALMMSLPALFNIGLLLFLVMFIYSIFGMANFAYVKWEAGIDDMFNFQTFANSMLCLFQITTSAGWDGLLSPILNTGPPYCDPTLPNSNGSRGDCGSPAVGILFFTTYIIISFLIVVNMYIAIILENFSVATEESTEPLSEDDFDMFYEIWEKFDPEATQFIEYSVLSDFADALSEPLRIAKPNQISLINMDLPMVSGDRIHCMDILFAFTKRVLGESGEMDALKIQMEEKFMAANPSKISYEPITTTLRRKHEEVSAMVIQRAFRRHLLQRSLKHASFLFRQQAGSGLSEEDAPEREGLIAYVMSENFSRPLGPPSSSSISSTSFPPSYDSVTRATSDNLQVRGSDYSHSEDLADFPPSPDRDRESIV

Chain of hNav1.3 (Q9NY46 whole entry, looked up): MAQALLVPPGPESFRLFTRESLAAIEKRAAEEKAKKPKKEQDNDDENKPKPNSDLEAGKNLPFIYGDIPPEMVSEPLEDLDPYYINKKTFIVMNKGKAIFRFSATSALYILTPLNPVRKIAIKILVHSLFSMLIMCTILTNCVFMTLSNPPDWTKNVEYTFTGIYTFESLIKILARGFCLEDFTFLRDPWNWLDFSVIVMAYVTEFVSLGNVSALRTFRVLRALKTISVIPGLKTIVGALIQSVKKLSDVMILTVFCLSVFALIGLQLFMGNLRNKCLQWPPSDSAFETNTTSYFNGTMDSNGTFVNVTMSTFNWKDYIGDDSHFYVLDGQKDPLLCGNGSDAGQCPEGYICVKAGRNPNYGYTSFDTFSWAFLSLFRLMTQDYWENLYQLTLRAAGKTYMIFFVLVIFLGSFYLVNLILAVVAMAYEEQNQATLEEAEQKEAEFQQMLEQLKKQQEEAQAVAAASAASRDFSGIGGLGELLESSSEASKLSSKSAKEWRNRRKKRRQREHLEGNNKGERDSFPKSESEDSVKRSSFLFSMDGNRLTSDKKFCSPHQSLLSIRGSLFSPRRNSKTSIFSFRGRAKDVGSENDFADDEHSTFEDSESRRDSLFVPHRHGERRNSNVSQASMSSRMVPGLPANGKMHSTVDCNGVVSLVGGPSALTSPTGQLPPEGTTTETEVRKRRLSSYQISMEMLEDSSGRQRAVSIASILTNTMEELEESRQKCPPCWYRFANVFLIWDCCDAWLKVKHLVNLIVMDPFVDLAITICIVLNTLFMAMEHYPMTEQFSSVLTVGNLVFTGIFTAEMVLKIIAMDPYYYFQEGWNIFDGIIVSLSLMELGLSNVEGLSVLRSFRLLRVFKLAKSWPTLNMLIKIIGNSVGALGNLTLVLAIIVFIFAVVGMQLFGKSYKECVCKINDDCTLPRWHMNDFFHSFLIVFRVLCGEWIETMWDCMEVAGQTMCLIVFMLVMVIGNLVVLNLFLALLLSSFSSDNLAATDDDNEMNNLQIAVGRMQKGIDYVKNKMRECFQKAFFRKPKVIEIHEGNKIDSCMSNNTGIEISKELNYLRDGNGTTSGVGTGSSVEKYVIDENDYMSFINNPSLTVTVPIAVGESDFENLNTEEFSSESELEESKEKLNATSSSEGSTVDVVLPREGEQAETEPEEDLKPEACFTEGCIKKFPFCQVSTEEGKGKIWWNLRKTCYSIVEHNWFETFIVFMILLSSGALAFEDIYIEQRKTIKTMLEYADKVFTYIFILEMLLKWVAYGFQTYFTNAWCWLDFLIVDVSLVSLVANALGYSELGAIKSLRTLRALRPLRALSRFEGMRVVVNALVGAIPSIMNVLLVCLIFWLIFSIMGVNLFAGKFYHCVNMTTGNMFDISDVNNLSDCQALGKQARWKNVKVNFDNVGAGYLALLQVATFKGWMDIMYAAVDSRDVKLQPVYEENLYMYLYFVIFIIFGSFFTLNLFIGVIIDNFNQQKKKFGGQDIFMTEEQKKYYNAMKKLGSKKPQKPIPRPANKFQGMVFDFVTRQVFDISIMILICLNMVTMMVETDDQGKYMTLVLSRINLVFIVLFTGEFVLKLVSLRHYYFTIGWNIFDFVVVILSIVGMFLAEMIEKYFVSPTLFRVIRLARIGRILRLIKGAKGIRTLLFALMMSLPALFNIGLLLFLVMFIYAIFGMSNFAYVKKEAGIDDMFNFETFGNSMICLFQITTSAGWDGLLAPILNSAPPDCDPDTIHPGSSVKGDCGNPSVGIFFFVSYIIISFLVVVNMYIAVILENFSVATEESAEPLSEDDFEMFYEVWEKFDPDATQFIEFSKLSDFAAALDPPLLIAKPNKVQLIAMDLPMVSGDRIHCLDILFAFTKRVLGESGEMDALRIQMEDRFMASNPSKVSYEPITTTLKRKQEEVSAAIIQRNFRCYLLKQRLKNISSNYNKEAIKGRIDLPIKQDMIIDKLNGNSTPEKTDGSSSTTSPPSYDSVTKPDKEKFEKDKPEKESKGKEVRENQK

Question: Which results are given for `CC[C@H](C)[C@@H]1NC(=O)[C@@H]2CSSC[C@@H]3NC(=O)[C@H](C(C)C)NC(=O)[C@H](CC(C)C)NC(=O)[C@H](CC(N)=O)NC(=O)[C@@H]4CCCN4C(=O)[C@H](CCCNC(=N)N)NC(=O)[C@H](CSSC[C@H](NC(=O)[C@@H](N)CC(=O)O)C(=O)N[C@@H](CC(C)C)C(=O)NCC(=O)N[C@@H](C)C(=O)N[C@@H](CCSC)C(=O)N[C@@H](CCCNC(=N)N)C(=O)N[C@@H](CCCCN)C(=O)N2)NC(=O)[C@H](CSSC[C@@H](C(=O)N[C@@H](CCCCN)C(=O)N[C@@H](Cc2ccc(O)cc2)C(=O)N[C@H](C(=O)N[C@@H](Cc2ccccc2)C(N)=O)C(C)C)NC(=O)[C@H](Cc2c[nH]c4ccccc24)NC(=O)[C@H](CCCCN)NC(=O)[C@H](Cc2c[nH]cn2)NC(=O)[C@H](CCC(=O)O)NC(=O)[C@H](CCCNC(=N)N)NC(=O)[C@H](CO)NC3=O)NC(=O)[C@H](CCCCN)NC(=O)[C@H](CC(=O)O)NC(=O)[C@H](CC(N)=O)NC(=O)[C@H](CC(=O)O)NC(=O)[C@@H]2CCCN2C1=O` [compound 787] (H-DCLGAMRKCIPDNDKCCRPNLVCSREHKWCKYVF-NH2; disulfide 2-17, 9-23, 16-30)?
Answer: IC50 (hNav1.3): > 5 µM; IC50 (hNav1.7): > 5 µM; IC50 (hNav1.5): 27.3 µM

Question: Which IC50 (hNav1.3) does the source give for `CC[C@H](C)[C@@H]1NC(=O)[C@@H]2CSSC[C@@H]3NC(=O)[C@H](C(C)C)NC(=O)[C@H](CC(C)C)NC(=O)[C@H](CC(N)=O)NC(=O)[C@@H]4CCCN4C(=O)[C@H](CCCNC(=N)N)NC(=O)[C@H](CSSC[C@H](NC(=O)[C@@H](N)CC(=O)O)C(=O)N[C@@H](CC(C)C)C(=O)NCC(=O)N[C@@H](Cc4ccccc4)C(=O)N[C@@H](CCSC)C(=O)N[C@@H](CCCNC(=N)N)C(=O)N[C@@H](CCCCN)C(=O)N2)NC(=O)[C@H](CSSC[C@@H](C(=O)N[C@@H](CCCCN)C(=O)N[C@@H](Cc2cccc4ccccc24)C(=O)N[C@H](C(=O)N[C@@H](Cc2ccccc2)C(N)=O)C(C)C)NC(=O)[C@H](Cc2c[nH]c4ccccc24)NC(=O)[C@H](CCCCN)NC(=O)[C@H](Cc2c[nH]cn2)NC(=O)[C@H](CC(C)C)NC(=O)[C@H](CCCNC(=N)N)NC(=O)[C@H](CO)NC3=O)NC(=O)[C@H](CCCCN)NC(=O)[C@H](CC(=O)O)NC(=O)[C@H](CC(N)=O)NC(=O)[C@H](CC(=O)O)NC(=O)[C@@H]2CCCN2C1=O` [compound 453] (H-DCLGFMRKCIPDNDKCCRPNLVCSRLHKWCK[1Nal]VF-NH2; disulfide 2-17, 9-23, 16-30) here?
Answer: Its IC50 is 0.01 µM.

Question: And the IC50 (hNav1.7)?
Answer: The IC50 was 0.01 µM.

Question: What about the IC50 (hNav1.5) of the same compound?
Answer: Its IC50 is > 5 µM.

Question: With `CC[C@H](C)[C@@H]1NC(=O)[C@@H]2CSSC[C@@H]3NC(=O)[C@H](C(C)C)NC(=O)[C@H](CC(C)C)NC(=O)[C@H](CC(N)=O)NC(=O)[C@@H]4CCCN4C(=O)[C@H](CCCNC(=N)N)NC(=O)[C@H](CSSC[C@H](NC(=O)[C@@H](N)CC(=O)O)C(=O)N[C@@H](CC(C)C)C(=O)NCC(=O)N[C@@H](C)C(=O)N[C@@H](CC(C)C)C(=O)N[C@@H](CCCNC(=N)N)C(=O)N[C@@H](CCCCN)C(=O)N2)NC(=O)[C@H](CSSC[C@@H](C(=O)N[C@@H](CCCCN)C(=O)N[C@@H](Cc2ccc(O)cc2)C(=O)N[C@H](C(=O)N[C@@H](Cc2ccccc2)C(=O)O)C(C)C)NC(=O)[C@H](Cc2c[nH]c4ccccc24)NC(=O)[C@H](CC(=O)O)NC(=O)[C@H](Cc2c[nH]cn2)NC(=O)[C@H]([C@@H](C)O)NC(=O)[C@H](CCCNC(=N)N)NC(=O)[C@H](CO)NC3=O)NC(=O)[C@H](CCCCN)NC(=O)[C@H](CC(=O)O)NC(=O)[C@H](CC(N)=O)NC(=O)[C@H](CC(=O)O)NC(=O)[C@@H]2CCCN2C1=O` [compound 854] (H-DCLGALRKCIPDNDKCCRPNLVCSRTHDWCKYVF-OH; disulfide 2-17, 9-23, 16-30) as the compound, how does the IC50 (hNav1.3) read?
Answer: Its IC50 is > 5 µM.

Question: And the IC50 (hNav1.7)?
Answer: The IC50 was > 5 µM.

Question: What about the IC50 (hNav1.5) of the same compound?
Answer: Its IC50 is > 5 µM.

— US9340590B2 (priority 2011, dated 2016)
